Assay results taken from paper PMC12379159 (Journal of Natural Products, 2025).
Where a chain is given by its changes, count along the chain named.

What was measured:
hRORγ LBD = target: T1, hRORγ LBD (Homo sapiens, UniProt P51449); test: Thermal stability by nano differential scanning fluorimetry (nanoDSF); format: binding; details: RORγ-LBD with 4 equiv ligand vs without ligand; mean ± SD
T1 construct: His tag (N, cleaved yes); made in house; host or cells: Escherichia coli BL21 DE3
T1 sequence (P51449 264-518): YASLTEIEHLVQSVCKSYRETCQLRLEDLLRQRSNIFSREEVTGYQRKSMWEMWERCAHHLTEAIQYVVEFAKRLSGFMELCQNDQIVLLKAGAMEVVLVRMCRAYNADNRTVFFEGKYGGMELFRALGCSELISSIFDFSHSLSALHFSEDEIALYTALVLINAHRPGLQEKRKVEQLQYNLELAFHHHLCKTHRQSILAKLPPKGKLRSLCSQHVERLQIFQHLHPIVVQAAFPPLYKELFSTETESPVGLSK
Protocol: Soluble proteins were purified on Ni Hitrap FFcrude column (Cytiva), followed by His tag removal by thrombin (MP Biomedicals) cleavage and by size exclusion chromatography on HiLoad Superdex200 column (Cytiva) equilibrated in 20 mM Tris-HCl pH 7.5, 150 mM NaCl, 1 mM TCEP (Hampton Research). Purity and homogeneity of the hRORγ LBD were assessed by SDS-PAGE. The purified protein was concentrated to 0.5–1.0 mg/mL with an Amicon Ultra 10 kDa MWCO. The aliquots of purified LBD were incubated with 4 equiv ligands or vehicle for thermal stability experiments.
Fluorescence-based thermal experiments were performed using a Prometheus NT.48 (NanoTemper Technologies, Germany) with grade standard capillaries containing 10 μL of RORγLBD with different ligands. […] NanoTemper PR. Stability Analysis v1.0.2 was used to fit the data and determine the melting temperatures Tm.

[1] = tested on: Il17a and Il17f (Il17a/f); test: RT-qPCR of Il17a and Il17f in EL-4-mRORγt cells; format: cell-based, murine; details: 5 μM, 20–24 h, then 4.5-h PMA and ionomycin
Protocol: For RT-qPCR assays, 5 × 10^5 EL-4-mRORγt cells were seeded in 500 μL complete DMEM per well of a 24-well plate and treated with the vehicle control, the positive control, or the compounds of interest. After incubation for 20–24 h, cells were stimulated with Cell Activation Cocktail (PMA: 40.5 μM, ionomycin: 669.3 μM; 500X) for 4.5 h. Afterward, total RNA was isolated using the innuPREP RNA Mini Kit 2.0 according to the manufacturer’s instructions. According to the manufacturer’s instructions, 1 μg RNA was reverse-transcribed into cDNA using the High-Capacity cDNA Reverse Transcription Kit. RT-qPCR was performed using the Luna Universal qPCR Master Mix on a LightCycler 480 (Roche Diagnostics, Rotkreuz, Switzerland) according to the manufacturer’s instructions. […] Livak’s 2−ΔΔCt method was employed to determine the expression levels of RORγ target genes. This involved normalizing the target gene expression to the expression levels of the control gene 18s, followed by further normalization to the vehicle control.

HEK293 cells = test: Resazurin conversion assay in HEK293 cells; format: cell-based, human; details: 5 μM, 18 h
Protocol: (§1) To check the metabolic activity of cells correlating with cell viability, cells were treated with the vehicle control (0.1% DMSO), digitonin as the positive control for cytotoxicity at 20 μg/mL (HEK293 cells) or 50 μg/mL (EL-4-mRORγt cells), or the compounds of interest at 5 μM for 18 h (HEK293 cells) or 20–24 h (EL-4-mRORγt cells). The next day, the medium was carefully removed and replaced with stripped DMEM without phenol red, containing 10 μg/mL resazurin sodium salt. Cells were incubated for 5 h before RFU values were measured at λem = 590 nm using a spectrophotometer. Cell viability was calculated as follows: Cell viability(%)=100×RFU value after compound treatment/RFU value after vehicle control treatment Cytotoxicity was defined as cell viability under 70% according to the ISO 10993–5 guidelines. Cell viability <90% is explicitly stated in the respective figure.

full-length human RORγ = target: T2, full-length human RORγ (Homo sapiens, UniProt P51449); test: Full-length RORγ luciferase assay (RORE-LUC reporter); format: cell-based; details: HEK293 cells, 5 μM
T2 construct: Encodes for the full-length human RORγ; expressed in transfected cells; host or cells: HEK293
T2 sequence (P51449 1-518): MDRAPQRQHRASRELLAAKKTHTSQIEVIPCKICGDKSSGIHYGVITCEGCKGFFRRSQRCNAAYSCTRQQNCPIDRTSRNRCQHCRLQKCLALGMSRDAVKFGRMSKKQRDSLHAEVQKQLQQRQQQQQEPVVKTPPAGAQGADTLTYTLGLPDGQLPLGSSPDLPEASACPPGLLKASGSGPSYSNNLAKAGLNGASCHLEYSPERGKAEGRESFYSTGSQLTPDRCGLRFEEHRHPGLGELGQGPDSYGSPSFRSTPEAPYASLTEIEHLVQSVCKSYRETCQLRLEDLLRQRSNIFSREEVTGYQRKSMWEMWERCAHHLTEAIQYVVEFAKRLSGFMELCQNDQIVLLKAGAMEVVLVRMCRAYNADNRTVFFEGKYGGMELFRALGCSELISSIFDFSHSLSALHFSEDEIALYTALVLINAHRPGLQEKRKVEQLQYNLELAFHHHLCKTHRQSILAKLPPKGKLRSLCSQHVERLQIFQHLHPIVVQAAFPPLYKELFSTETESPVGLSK
Protocol: (§2) For luciferase assays, 8 × 10^6 HEK293 cells were seeded on 150 mm cell culture dishes and incubated for 5 h. Afterward, cells were transfected with the calcium phosphate coprecipitation method using 5 μg of the nuclear receptor (Gal4-hRORγ or full-length human RORγ), 5 μg of a luciferase reporter (pTK-MH100 × 4-LUC for Gal4-hRORγ experiments or RORE-LUC for full-length human RORγ experiments) and 3 μg eGFP-N1 (for assessing transfection efficiency) plasmid DNA and incubated overnight. […] The medium was changed the following day, and cells were further incubated for another four to 5 h before trypsin/EDTA was added to detach them from the dishes. […] RLUs were normalized to relative fluorescence units (RFU) to account for differences in cell number and transfection efficiency and then normalized to the vehicle control. Results are expressed as fold activation relative to the vehicle control.
(§3) Concentration–response data were analyzed in GraphPad Prism version 10 by three-parameter logistic nonlinear regression, with the Hill slope constrained to a theoretical value of −1.0. An IC50 value was determined only for compounds yielding a statistically reliable fit. […] In these cases, only the maximal inhibition achieved at the highest tested concentration (I max(%) at 5 μM) is reported, calculated as follows: Imax(%)=(1−Bottom/Top)×100 (“top” = baseline activity measured at the lowest concentration, “bottom” = residual activity observed at the highest concentration, corresponding to the maximal inhibitory effect).

Gal4-hRORγ = target: T3, Gal4-hRORγ (Homo sapiens, UniProt P51449); test: Gal4-RORγ mammalian one-hybrid luciferase assay; format: cell-based; details: HEK293 cells
T3 construct: Encodes for a hRORγ-LBD:Gal4-DBD fusion protein; expressed in transfected cells; host or cells: HEK293
T3 sequence (P51449 269-508 limits assumed): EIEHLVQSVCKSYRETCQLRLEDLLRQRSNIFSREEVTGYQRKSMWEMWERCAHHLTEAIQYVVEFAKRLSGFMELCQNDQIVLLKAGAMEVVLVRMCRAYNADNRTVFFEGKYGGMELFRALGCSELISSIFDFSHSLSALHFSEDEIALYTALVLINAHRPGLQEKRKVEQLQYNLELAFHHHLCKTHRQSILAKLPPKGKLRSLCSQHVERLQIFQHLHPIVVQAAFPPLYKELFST
Protocol: as §2, §3

Gal4-RORγ H479L = target: T4, Gal4-RORγ H479L (Homo sapiens, UniProt P51449, H479L); test: Gal4-RORγ H479L mutant luciferase assay; details: 5 μM
T4 sequence (P51449 269-508 H479L limits assumed): T3 sequence (P51449 269-508 limits assumed) with H211L
Protocol: Gal4-hRORγ H323A and H479L mutants were generated using the QuikChange Lightning Site-Directed Mutagenesis Kit according to the manufacturer’s instructions. Briefly, 10 ng template DNA (Gal4-hRORγ) was PCR-amplified with the respective mutagenic forward and reverse primers listed in Table S3, which were designed using the QuikChange Primer Design tool (https://www.agilent.com/store/primerDesignProgram.jsp). […] Two μL of the PCR product were then transformed into XL1-Blue competent E. coli according to a protocol provided by NEB. […] After centrifuging the main culture at 5691g for 10 min, the supernatant was decanted, and plasmid preparation was performed using the PureLink HiPure Plasmid Midiprep Kit according to the manufacturer’s instructions. DNA yields and purities were checked using a NanoDrop 2000c (Thermo Fisher Scientific, Waltham, MA, USA).

EL-4-mRORγt cells = test: Resazurin conversion assay in EL-4-mRORγt cells; format: cell-based, murine; details: 5 μM, 20-24 h
Protocol: as §1

ΔTm measured with nano differential scanning fluorimetry (hRORγ LBD): 9.1 ± 0.2 °C | Imax(%) at 5 μM, full-length RORγ luciferase assay (full-length human RORγ): 38% | Imax(%) at 5 μM, Gal4-RORγ luciferase assay (Gal4-hRORγ; 5 μM): 47% | IC50 (Gal4-hRORγ; 18 h treatment, up to 5 μM): 1.2 µM | Activity on Gal4-RORγ H479L vs WT (Gal4-RORγ H479L): notable decrease in activity
SMILES: C=C(C)[C@@H]1CC[C@]2(C(=O)O)CC[C@]3(C)[C@H](CC[C@@H]4[C@@]5(C)CC[C@H](O)C(C)(C)[C@@H]5CC[C@]43C)[C@@H]12 [Betulinic acid, reference compound]
Il17a/f expression [1]: reduction of Il17a/f expression | Cytotoxic effects, resazurin conversion assay (HEK293 cells): no cytotoxic effects | Cytotoxic effects, resazurin conversion assay (EL-4-mRORγt cells): no cytotoxic effects
